Organism: Rattus norvegicus
Test: Open TG-GATES - Regimen: Daily Repeat
Format: toxicity, organism-based, Sprague-Dawley
Design: regimen Daily Repeat, gender Male, age 6 weeks
Details: in vivo, iv, 300 mg/kg, […], route intravenous injection, dose level Low; for KIDNEY_L / KIDNEY_R / KIDNEY_TOTAL: tissue Kidney; for LIVER: tissue Liver; for ALP / ALT / AST / BUN / CRE / Ca / Cl / DBIL / GLC / IP / K / LDH / Na / PL / RALB / TBIL / TC / TG / TP / gamma-GTP: tissue Plasma

CC(=O)OCC1=C(C(=O)O)N2C(=O)[C@@H](NC(=O)Cc3cccs3)[C@H]2SC1 [CEPHALOTHIN]
Ht (tissue Blood, time 28 day): 42.1% | Lym (tissue Blood, time 28 day): 87.4% | MCH (tissue Blood, time 28 day): 19.1 pg | MCHC (tissue Blood, time 28 day): 36.6% | MCV (tissue Blood, time 28 day): 52.3 fL | Mono (tissue Blood, time 28 day): 2.4% | Neu (tissue Blood, time 28 day): 8.2% | PT (tissue Blood, time 28 day): 16.2 s | Plat (tissue Blood, time 28 day): 107.1 x10_4/uL | RBC (tissue Blood, time 28 day): 805.4 x10_4/ul | Ret (tissue Blood, time 28 day): 2.3% | WBC (tissue Blood, time 28 day): 92.3 x10_2/uL | KIDNEY_L (time 7 day): 1.1 g | KIDNEY_R (time 7 day): 1.1 g | KIDNEY_TOTAL (time 7 day): 2.1 g | KIDNEY_L (time 14 day): 1.2 g | KIDNEY_R (time 14 day): 1.3 g | KIDNEY_TOTAL (time 14 day): 2.5 g | KIDNEY_L (time 28 day): 1.4 g | KIDNEY_R (time 28 day): 1.4 g | KIDNEY_TOTAL (time 28 day): 2.8 g | LIVER (time 7 day): 11.8 g | LIVER (time 14 day): 12.3 g | LIVER (time 28 day): 14.2 g | ALP (time 7 day): 1472.6 IU/L | ALT (time 7 day): 34.4 IU/L | AST (time 7 day): 68.2 IU/L | BUN (time 7 day): 17.8 mg/dL | CRE (time 7 day): 0.2 mg/dL | Ca (time 7 day): 10.6 mg/dL | Cl (time 7 day): 106.2 meq/L | DBIL (time 7 day): 0 mg/dL | GLC (time 7 day): 174.4 mg/dL | IP (time 7 day): 7 mg/dL | K (time 7 day): 4.4 meq/L | LDH (time 7 day): 178.2 IU/L | Na (time 7 day): 141.4 meq/L | PL (time 7 day): 144.6 mg/dL | RALB (time 7 day): 3 g/dL | TBIL (time 7 day): 0.004 mg/dL | TC (time 7 day): 71.2 mg/dL | TG (time 7 day): 146.8 mg/dL | TP (time 7 day): 5.5 g/dL | gamma-GTP (time 7 day): 1.6 IU/L | ALP (time 14 day): 1293.4 IU/L | ALT (time 14 day): 29.6 IU/L | AST (time 14 day): 57.8 IU/L | BUN (time 14 day): 16.8 mg/dL | CRE (time 14 day): 0.2 mg/dL | Ca (time 14 day): 10.9 mg/dL | Cl (time 14 day): 106.2 meq/L | DBIL (time 14 day): 0 mg/dL | GLC (time 14 day): 179.4 mg/dL | IP (time 14 day): 6.9 mg/dL | K (time 14 day): 4.2 meq/L | LDH (time 14 day): 109.2 IU/L | Na (time 14 day): 142.2 meq/L | PL (time 14 day): 142.6 mg/dL | RALB (time 14 day): 3.1 g/dL | TBIL (time 14 day): 0.01 mg/dL | TC (time 14 day): 75 mg/dL | TG (time 14 day): 103.4 mg/dL | TP (time 14 day): 5.7 g/dL | gamma-GTP (time 14 day): 2 IU/L | ALP (time 28 day): 1007.4 IU/L | ALT (time 28 day): 30.4 IU/L | AST (time 28 day): 58.8 IU/L | BUN (time 28 day): 16.6 mg/dL | CRE (time 28 day): 0.2 mg/dL | Ca (time 28 day): 10.5 mg/dL | Cl (time 28 day): 106.8 meq/L | DBIL (time 28 day): 0.004 mg/dL | GLC (time 28 day): 168.4 mg/dL | IP (time 28 day): 5.6 mg/dL | K (time 28 day): 4.1 meq/L | LDH (time 28 day): 158 IU/L | Na (time 28 day): 143.2 meq/L | PL (time 28 day): 134.2 mg/dL | RALB (time 28 day): 3.1 g/dL | TBIL (time 28 day): 0.006 mg/dL | TC (time 28 day): 65.6 mg/dL | TG (time 28 day): 141.2 mg/dL | TP (time 28 day): 5.9 g/dL | gamma-GTP (time 28 day): 1 IU/L

From ChEMBL document CHEMBL3885861, “Open TG-GATES”
